Experimental data reported in paper PMC11773759, “Bioactivity-guided isolation and molecular modeling of the anti-inflammatory constituents from the leaves of Duranta erecta Linn” (BMC Complementary Medicine and Therapies, 2025).

Legend:
ovine COX-1 = target: T1, ovine COX-1 (Ovis aries, UniProt P05979); assay: COX-1 inhibition assay (colorimetric COX (ovine) inhibitor screening kit)
T1 sequence (P05979 25-600): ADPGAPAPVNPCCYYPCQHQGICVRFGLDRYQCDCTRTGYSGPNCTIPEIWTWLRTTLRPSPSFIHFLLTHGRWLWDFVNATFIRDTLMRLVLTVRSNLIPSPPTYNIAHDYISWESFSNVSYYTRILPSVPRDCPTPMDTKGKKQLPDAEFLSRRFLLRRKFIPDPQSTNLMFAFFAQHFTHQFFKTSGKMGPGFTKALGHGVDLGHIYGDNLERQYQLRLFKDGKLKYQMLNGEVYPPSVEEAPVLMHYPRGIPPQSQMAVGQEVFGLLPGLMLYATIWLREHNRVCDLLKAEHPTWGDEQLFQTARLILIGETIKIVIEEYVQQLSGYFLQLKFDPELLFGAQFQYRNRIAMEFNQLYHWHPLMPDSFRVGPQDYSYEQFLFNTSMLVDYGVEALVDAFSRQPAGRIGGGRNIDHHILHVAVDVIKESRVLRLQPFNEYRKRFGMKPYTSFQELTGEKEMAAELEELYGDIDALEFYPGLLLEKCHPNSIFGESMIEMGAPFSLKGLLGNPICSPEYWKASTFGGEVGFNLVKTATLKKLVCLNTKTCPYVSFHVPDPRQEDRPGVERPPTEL
Description: COX-1 and 2 inhibition assay kits (K548-100 and K547-100) were purchased from Biovision Inc., California, USA. […] The absorbances were measured using a Tecan microplate reader (Infinite F50, Switzerland). […] Sigma Chemical Company (CA, USA) supplied the reagents utilized in biological experiments.
To prepare a stock concentration of 5 mg/mL, the extract and its constituent fractions were dissolved in 100% DMSO. In triplicate, samples were serially diluted from 0.1 µg/mL to 100 µg/mL. The inhibitory activity of COX was determined using a colorimetric approach, as previously described [13], and using the Cayman colorimetric COX (ovine) inhibitor screening test kit (Cayman Chemical Company, MI, USA) according to the manufacturer’s instructions. […] After initiating the reaction with 10 µL of 10 mM arachidonic acid, the mixture was incubated at 37 °C for another 2 min. To stop the reaction, 50 µL of 1 N HCl and saturated stannous chloride were added. The assays were run using 100 U of ovine COX-1 and COX-2. […] Results were presented as IC50 (µg/mL) [13].

5-LOX enzyme = assay: 5-Lipoxygenase (5-LOX) inhibitory assay (colorimetric LOX inhibitor screening kit); format: biochemical; settings: isolated compounds
Description: The LOX inhibitor screening assay was carried out colorimetrically, as per the manufacturer’s instructions (Cayman Chemical Company, MI, USA). […] To initiate the enzymatic reaction, introduce 10 µL of 1 mM arachidonic acid and shake the plate for 5 min.
To halt the enzymatic process and promote colour formation, 100 µL of chromogen from the test kit was used. The plate was then shaken for a further 5 min before the absorbance at 490 nm was measured with a microplate reader.

lipoxygenase = system: lipoxygenase; design: method as in PMID 26134247; settings: dose of 0.5 mM; cited from earlier work
soybean 5-LOX = system: soybean 5-LOX; design: method as in doi:10.1007/s00044-016-1677-9; settings: in vitro; cited from earlier work
[1] = system: carrageenan-induced rat paw edema; design: method as in PMID 12241987; settings: cited from earlier work

Compound	IC50 (ovine COX-1)	IC50 (5-LOX enzyme)	inhibition of lipoxygenase (lipoxygenase)	suppression of soybean 5-LOX (soybean 5-LOX)	anti-inflammatory effect in carrageenan-induced rat paw edema [1]
COC(=O)C1=COC(OC2OC(CO)C(O)C(O)C2O)C2C1(O)CC(OC(=O)C=Cc1ccc(OC)c(O)c1)C2(C)O (stereo not shown) [Compound 1, duranterectoside A]	7.3 ± 0.9 µM	2.6 ± 0.1 µM	–	–	–
COC(=O)C1=COC(OC2OC(CO)C(O)C(O)C2O)C2C1(O)CC(O)C2(C)O (stereo not shown) [Compound 2, lamiide]	8.5 ± 0.2 µM	4.9 ± 0.4 µM	moderate inhibition	suppresses	anti-inflammatory properties
